Reference: patent publication US9850225B2, “Compounds useful as immunomodulators” (BRISTOL-MYERS SQUIBB COMPANY, priority 2014, dated 2017)
Read-outs that look alike come from different tables or passages of the source.

Target: PD-1/PD-L1 interaction (PD-1-Ig / PD-L1-His) (Homo sapiens (Human), UniProt Q9NZQ7)
Assay: PD-1/PD-L1 Homogenous Time-Resolved Fluorescence (HTRF) binding assay
Conditions: PD-1/PD-L1 HTRF binding assay, read-out: Range or IC50
In short: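 Human PD-L1-His (10 nM final) was pre-incubated with inhibitor for 15 min, then PD-1-Ig (20 nM final) was added for a further 15 min in dPBS with 0.1% BSA and 0.05% Tween-20. Binding was detected by HTRF using Eu-cryptate anti-Ig (1 nM) and APC anti-His (20 nM).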

Sequence of PD-1/PD-L1 interaction (PD-1-Ig / PD-L1-His) (Q9NZQ7 other isoform, or with tags, fused parts or gaps): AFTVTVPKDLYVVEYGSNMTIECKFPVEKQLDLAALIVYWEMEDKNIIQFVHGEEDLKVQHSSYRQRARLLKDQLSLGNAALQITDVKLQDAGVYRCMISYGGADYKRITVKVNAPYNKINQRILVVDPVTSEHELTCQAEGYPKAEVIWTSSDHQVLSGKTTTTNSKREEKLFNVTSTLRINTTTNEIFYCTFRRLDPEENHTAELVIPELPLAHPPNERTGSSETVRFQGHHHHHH

| SMILES | IC50 (value given as range class) [µM] | other results |
| --- | --- | --- |
| Cc1c(COc2cc(OCc3cccc(C#N)c3)c(CN3CCSC[C@@H]3C(=O)O)cc2Cl)cccc1-c1ccc2c(c1)OCCO2 [Example 1222, (S)-4-(5-chloro-2-((3-cyanobenzyl)oxy)-4-((3-(2,3-dihydrobenzo[b][1,4]dioxin-6-yl)-2-methylbenzyl)oxy)benzyl)thiomorpholine-3-carboxylic acid] | 0.01 to 0.1 | – |
| CC(=O)NCCNCc1ccc(OCc2cccc(-c3ccccc3)c2C)cc1OCC(N)=O [Example 1031, 2-(2-(((2-acetamidoethyl)amino)methyl)-5-((2-methyl-[1,1′-biphenyl]-3-yl)methoxy)phenoxy)acetamide] | 0.1 to 20 | – |
| COc1ccccc1COc1cc(OCc2cccc(-c3ccc4c(c3)OCCO4)c2C)c(Cl)cc1CN1CCCC[C@H]1C(=O)O [Example 3029, (S)-1-(5-chloro-4-((3-(2,3-dihydrobenzo[b][1,4]dioxin-6-yl)-2-methylbenzyl)oxy)-2-((2-methoxybenzyl)oxy)benzyl)piperidine-2-carboxylic acid] | – | IC50 (μM): 2.35 µM |
| Cc1c(COc2cc(OCc3cccc(C#N)c3)c(CN3C[C@H](F)C[C@H]3C(=O)O)cc2Cl)cccc1-c1ccc2c(c1)OCCO2 [Example 1215, (2S,4R)-1-(5-chloro-2-((3-cyanobenzyl)oxy)-4-((3-(2,3-dihydrobenzo[b][1,4]dioxin-6-yl)-2-methylbenzyl)oxy)benzyl)-4-fluoropyrrolidine-2-carboxylic acid] | 0.01 to 0.1 | – |
| Cc1c(COc2cc(OCc3cccc(C#N)c3)c(CN3CCCC[C@H]3C(=O)O)cc2Cl)cccc1-c1ccc2c(c1)OCCO2 [Example 1230, (S)-1-(5-chloro-2-((3-cyanobenzyl)oxy)-4-((3-(2,3-dihydrobenzo[b][1,4]dioxin-6-yl)-2-methylbenzyl)oxy)benzyl)piperidine-2-carboxylic acid] | 0.0006 to 0.01 | – |
| COc1cc(COc2cc(OCc3cccc(-c4ccc5c(c4)OCCO5)c3C)c(Cl)cc2CN2CCCC[C@H]2C(=O)O)ccn1 [Example 3017, (S)-1-(5-chloro-4-((3-(2,3-dihydrobenzo[b][1,4]dioxin-6-yl)-2-methylbenzyl)oxy)-2-((2-methoxypyridin-4-yl)methoxy)benzyl)piperidine-2-carboxylic acid] | 0.01 to 0.1 | – |
| Cc1c(COc2cc(OCc3cncc(C(=O)O)c3)c(CN[C@@H](CCCN)C(=O)O)cc2Cl)cccc1-c1ccc2c(c1)OCCO2 [Example 2002, (S)-5-((2-(((4-amino-1-carboxybutyl)amino)methyl)-4-chloro-5-((3-(2,3-dihydrobenzo[b][1,4]dioxin-6-yl)-2-methylbenzyl)oxy)phenoxy)methyl)nicotinic acid] | – | IC50 (numeric value): 0.01 µM |
| Cc1c(COc2ccc(CNC[C@@H](O)CC(=O)O)c(OCCCCC#N)c2)cccc1-c1ccccc1 [Example 1144, (S)-4-((2-(4-cyanobutoxy)-4-((2-methyl-[1,1′-biphenyl]-3-yl)methoxy)benzyl)amino)-3-hydroxybutanoic acid] | 0.0006 to 0.01 | – |
| CC(=O)NCCNCc1ccc(OCc2cccc(-c3ccccc3)c2C)cc1OCc1ccccc1 [Example 1024, N-(2-((2-(benzyloxy)-4-((2-methyl-[1,1′-biphenyl]-3-yl)methoxy)benzyl)amino)ethyl)acetamide] | 0.1 to 20 | – |
| CC(=O)NCCNCc1ccc(OCc2cccc(-c3ccccc3)c2C)cc1OCc1ccc(F)c(Cl)c1 [Example 1110, N-(2-((2-((3-chloro-4-fluorobenzyl)oxy)-4-((2-methyl-[1,1′-biphenyl]-3-yl)methoxy)benzyl)amino)ethyl)acetamide] | 0.1 to 20 | – |
| Cc1c(COc2cc(OCc3cccc(C#N)c3)c(CN3CCOCC3C(=O)O)cc2Cl)cccc1-c1ccc2c(c1)OCCO2 (stereo not drawn) [Example 1213, 4-(5-chloro-2-((3-cyanobenzyl)oxy)-4-((3-(2,3-dihydrobenzo[b][1,4]dioxin-6-yl)-2-methylbenzyl)oxy)benzyl)morpholine-3-carboxylic acid] | 0.01 to 0.1 | – |
| CC(=O)NCCNCc1ccc(OCc2cccc(-c3ccccc3)c2C)cc1OCCc1ccccc1 [Example 1033, N-(2-((4-((2-methyl-[1,1′-biphenyl]-3-yl)methoxy)-2-phenethoxybenzyl)amino)ethyl)acetamide] | 0.1 to 20 | – |
| Cc1c(COc2cc(OCc3cccc(C#N)c3)c(CNC(Cc3ccccc3O)C(=O)O)cc2Cl)cccc1-c1ccc2c(c1)OCCO2 (stereo not drawn) [Example 1181, 2-((5-chloro-2-((3-cyanobenzyl)oxy)-4-((3-(2,3-dihydrobenzo[b][1,4]dioxin-6-yl)-2-methylbenzyl)oxy)benzyl)amino)-3-(2-hydroxyphenyl)propanoic acid] | 0.01 to 0.1 | – |
| Cc1c(COc2cc(OCc3cccc(C#N)c3)c(CNC3(C(=O)O)CCN(C)CC3)cc2Cl)cccc1-c1ccc2c(c1)OCCO2 [Example 1220, 4-((5-chloro-2-((3-cyanobenzyl)oxy)-4-((3-(2,3-dihydrobenzo[b][1,4]dioxin-6-yl)-2-methylbenzyl)oxy)benzyl)amino)-1-methylpiperidine-4-carboxylic acid] | – | IC50 (numeric value): 0.00607 µM |
| COc1ccc(C(=O)O)cc1COc1cc(OCc2cccc(-c3ccc4c(c3)OCCO4)c2C)c(Cl)cc1CN1CCCC[C@H]1C(=O)O [Example 3027, (S)-1-(2-((5-carboxy-2-methoxybenzyl)oxy)-5-chloro-4-((3-(2,3-dihydrobenzo[b][1,4]dioxin-6-yl)-2-methylbenzyl)oxy)benzyl)piperidine-2-carboxylic acid] | 0.1 to 20 | – |
| Cc1c(COc2cc(OCc3ccccc3)c(CN3CCCC[C@H]3C(=O)O)cc2Cl)cccc1-c1ccc2c(c1)OCCO2 [Example 3028, (S)-1-(2-(benzyloxy)-5-chloro-4-((3-(2,3-dihydrobenzo[b][1,4]dioxin-6-yl)-2-methylbenzyl)oxy)benzyl)piperidine-2-carboxylic acid] | 0.1 to 20 | – |
| Cc1c(COc2ccc(CNC[C@@H](O)CC(=O)O)c(OCc3ccc(F)c(C#N)c3)c2)cccc1-c1ccccc1 [Example 1331, (S)-4-((2-((3-cyano-4-fluorobenzyl)oxy)-4-((2-methyl-[1,1′-biphenyl]-3-yl)methoxy)benzyl)amino)-3-hydroxybutanoic acid] | 0.0006 to 0.01 | – |
| Cc1c(COc2cc(OCc3cccc(C#N)c3)c(CN3CC[C@@H](O)[C@H]3C(=O)O)cc2Cl)cccc1-c1ccc2c(c1)OCCO2 [Example 1204, (2S,3R)-1-(5-chloro-2-((3-cyanobenzyl)oxy)-4-((3-(2,3-dihydrobenzo[b][1,4]dioxin-6-yl)-2-methylbenzyl)oxy)benzyl)-3-hydroxypyrrolidine-2-carboxylic acid] | 0.0006 to 0.01 | – |

Now from value to compound, other results behind:

| IC50 (value given as range class) [µM] | SMILES | other results |
| --- | --- | --- |
| 0.0006 to 0.01 | COc1cc(OCc2cccc(-c3ccc4c(c3)OCCO4)c2C)cc(OCc2cccc(C#N)c2)c1CN[C@H](CO)C(=O)O [Example 1139, (R)-2-((2-((3-cyanobenzyl)oxy)-4-((3-(2,3-dihydrobenzo[b][1,4]dioxin-6-yl)-2-methylbenzyl)oxy)-6-methoxybenzyl)amino)-3-hydroxypropanoic acid] | – |
| 0.0006 to 0.01 | Cc1c(COc2cc(OCc3cccc(C#N)c3)c(CN[C@@H](CO)C(=O)O)cc2Br)cccc1-c1ccc2c(c1)OCCO2 [Example 1301, (S)-2-((5-bromo-2-((3-cyanobenzyl)oxy)-4-((3-(2,3-dihydrobenzo[b][1,4]dioxin-6-yl)-2-methylbenzyl)oxy)benzyl)amino)-3-hydroxypropanoic acid] | – |
| 0.0006 to 0.01 | Cc1c(COc2cc(OCc3cccc(C#N)c3)c(CNC(CN(C)C)C(=O)O)cc2Cl)cccc1-c1ccc2c(c1)OCCO2 (stereo not drawn) [Example 1172, 2-((5-chloro-2-((3-cyanobenzyl)oxy)-4-((3-(2,3-dihydrobenzo[b][1,4]dioxin-6-yl)-2-methylbenzyl)oxy)benzyl)amino)-3-(dimethylamino)propanoic acid] | – |
| 0.0006 to 0.01 | CC(=O)NCCNCc1cc(C)c(OCc2cccc(-c3ccc4c(c3)OCCO4)c2C)cc1OCc1cncc(C#N)c1 [Example 1282, N-(2-(2-((5-cyanopyridin-3-yl)methoxy)-4-(3-(2,3-dihydrobenzo[b][1,4]dioxin-6-yl)-2-methylbenzyloxy)-5-methylbenzylamino)ethyl)acetamide] | – |
| 0.0006 to 0.01 | CCOC(=O)Nc1cncc(COc2cc(OCc3cccc(-c4ccc5c(c4)OCCO5)c3C)c(Cl)cc2CN[C@@](C)(CO)C(=O)O)c1 [Example 3009, (S)-2-((5-chloro-4-((3-(2,3-dihydrobenzo[b][1,4]dioxin-6-yl)-2-methylbenzyl)oxy)-2-((5-((ethoxycarbonyl)amino)pyridin-3-yl)methoxy)benzyl)amino)-3-hydroxy-2-methylpropanoic acid] | – |
| 0.0006 to 0.01 | Cc1cc(CN[C@@H](CO)C(=O)O)c(OCc2ccc(F)c(C#N)c2)cc1OCc1cccc(-c2ccc3c(c2)OCCO3)c1C [Example 1274, (S)-2-((2-((3-cyano-4-fluorobenzyl)oxy)-4-((3-(2,3-dihydrobenzo[b][1,4]dioxin-6-yl)-2-methylbenzyl)oxy)-5-methylbenzyl)amino)-3-hydroxypropanoic acid] | – |
| 0.0006 to 0.01 | Cc1c(COc2cc(OCc3cccc(C#N)c3)c(CN(C)C(C)C(=O)O)cc2Cl)cccc1-c1ccc2c(c1)OCCO2 (stereo not drawn) [Example 1188, 2-((5-chloro-2-((3-cyanobenzyl)oxy)-4-((3-(2,3-dihydrobenzo[b][1,4]dioxin-6-yl)-2-methylbenzyl)oxy)benzyl)(methyl)amino)propanoic acid] | – |
| 0.0006 to 0.01 | CC(=O)NCCNCc1cc(Cl)c(OCc2cccc(-c3ccc4c(c3)OCCO4)c2C)cc1OCc1cncc(C#N)c1 [Example 1251, N-(2-((5-chloro-2-((5-cyanopyridin-3-yl)methoxy)-4-((3-(2,3-dihydrobenzo[b][1,4]dioxin-6-yl)-2-methylbenzyl)oxy)benzyl)amino)ethyl)acetamide] | – |
| 0.0006 to 0.01 | Cc1cc(CNC[C@@H](O)CC(=O)O)c(OCc2cncc(C#N)c2)cc1OCc1cccc(-c2ccc3c(c2)OCCO3)c1C [Example 1283, (S)-4-(2-((5-cyanopyridin-3-yl)methoxy)-4-(3-(2,3-dihydrobenzo[b][1,4]dioxin-6-yl)-2-methylbenzyloxy)-5-methylbenzylamino)-3-hydroxybutanoic acid] | – |
